The source of these data is patent US8822486B2, “Spiropiperidine compounds” (Eli Lilly and Company, priority 2009, dated 2014).

The target in one assay is T1, PPARδ (Homo sapiens, UniProt Q03181).
T1 construct: made in house; host or cells: HEK293 (cell lysates)
T1 sequence (Q03181 1-441): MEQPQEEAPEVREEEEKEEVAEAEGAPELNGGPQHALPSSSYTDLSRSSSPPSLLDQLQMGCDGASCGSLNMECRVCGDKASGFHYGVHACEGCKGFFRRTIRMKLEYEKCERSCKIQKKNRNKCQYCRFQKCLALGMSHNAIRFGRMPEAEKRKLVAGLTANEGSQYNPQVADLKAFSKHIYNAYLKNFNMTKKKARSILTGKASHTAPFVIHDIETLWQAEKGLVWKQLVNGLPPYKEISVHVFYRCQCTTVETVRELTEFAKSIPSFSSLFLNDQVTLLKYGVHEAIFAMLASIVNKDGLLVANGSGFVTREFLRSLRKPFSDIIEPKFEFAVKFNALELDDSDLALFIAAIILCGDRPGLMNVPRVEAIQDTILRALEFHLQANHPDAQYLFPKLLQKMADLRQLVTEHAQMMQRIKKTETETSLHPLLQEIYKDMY
T1 sequence (P19793 1-462 partner): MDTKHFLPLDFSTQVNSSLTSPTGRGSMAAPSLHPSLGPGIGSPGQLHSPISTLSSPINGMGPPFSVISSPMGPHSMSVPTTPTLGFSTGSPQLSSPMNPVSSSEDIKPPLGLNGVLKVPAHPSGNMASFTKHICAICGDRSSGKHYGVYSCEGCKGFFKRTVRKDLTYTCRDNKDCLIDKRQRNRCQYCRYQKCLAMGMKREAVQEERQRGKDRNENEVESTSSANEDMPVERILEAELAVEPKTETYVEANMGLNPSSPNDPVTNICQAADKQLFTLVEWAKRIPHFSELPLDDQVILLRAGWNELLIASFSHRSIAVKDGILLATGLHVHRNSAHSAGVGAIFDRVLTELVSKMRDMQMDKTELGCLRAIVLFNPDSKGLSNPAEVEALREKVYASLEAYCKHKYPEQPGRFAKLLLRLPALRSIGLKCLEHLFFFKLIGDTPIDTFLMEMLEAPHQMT
Nature of the assay: PPARδ binding assay (SPA). The settings on record: concentrations up to 10 μM. As for the experimental part:
Because GPR40 is known to be activated by ligands to PPARγ exemplified compounds are examined in PPARα, PPARδ, and PPARγ binding and functional assays to determine the selectivity of exemplified compounds for GPR40. Compounds exemplified herein are tested essentially as described below for PPAR binding and generally have binding values greater than 1000 nM with 10 μM concentrations of test compound and are thus considered negative for PPAR activity.
Binding affinities of compounds for the PPAR α, δ, and γ receptors are assessed using Scintillation Proximity Assay (SPA) technology. Biotinylated oligonucleotide Direct Repeat 2 (DR2) is used for binding the receptors to Yttrium silicate streptavidin-coated SPA beads. […] Non-specific binding is determined in the presence of 10,000 nM of the unlabeled PPAR α/δ dual agonist reference compound for the alpha and delta receptor assays and the PPARγ agonist reference compound for the gamma receptor assay. The binding reaction (100 μl per well in a 96 well [Costar 3632] plate) is incubated for 10 h and counted disintegration per minutes (dpm) on a Wallac Microbeta. Receptor binding affinity (IC50) for the compounds is determined by fitting an 11 point concentration-response curve with a 4-paramater logistic equation. K, is determined from the IC50 using the Cheng-Prussoff equation and Kd determined by saturation binding. […]

For another assay, the target named is T2, Gal4 PPARα (Homo sapiens, UniProt Q07869).
T2 construct: expressed in transfected cells; host or cells: CV1 (African green monkey kidney)
T2 sequence (Q07869 239-466 limits assumed): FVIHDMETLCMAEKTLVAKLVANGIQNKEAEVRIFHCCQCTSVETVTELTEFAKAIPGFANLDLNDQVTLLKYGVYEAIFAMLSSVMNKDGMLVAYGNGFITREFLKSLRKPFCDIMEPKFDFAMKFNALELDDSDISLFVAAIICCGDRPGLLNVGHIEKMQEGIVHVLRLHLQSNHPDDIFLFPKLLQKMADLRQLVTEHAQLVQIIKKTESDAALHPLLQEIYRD
The assay can be described thus: Gal4 PPARα reporter functional assay in CV1 cells. It counts as cell-based. The note with it: examined up to 10 μM, luciferase reporter, 24 hours. The source says:
Gal4 PPARα, Gal4 PPARδ, and PPARγ reporter functional assays are also used to monitor the selectivity of exemplified compounds. CV1 cells, which are derived from the renal tissue of an African green monkey, are transfected with various receptor and reporter plasmids using Fugene. For the Gal4 PPARα and PPARδ assays, a reporter plasmid containing five tandem copies of the yeast transcription protein Gal4 response element, cloned upstream of a firefly luciferase gene driven by the major late promoter of adenovirus, is transfected together with a Simian Virus 40 (SV40) driven plasmid constitutively expressing a hybrid protein containing the Gal4 DNA binding domain (DBD), and either the PPARα or PPARδ ligand binding. For the PPARγ assay, plasmids encoding PPARγ and RXRα, both driven by a cytomegalovirus (CMV) promoter are transfected together with a plasmid containing luciferase reporter cDNA driven by the TK promoter and a receptor response element (2×PPRE). Cells are transfected in T225 cm^2 cell culture flasks in DMEM media with 5% charcoal-stripped FBS. […] After 24 hours incubation with compounds, cells are lysed and luciferase activity is determined as a measure of receptor activation by luminescence. […] The maximum percent stimulation is determined versus maximum stimulation obtained with 10 μM of an appropriate PPAR agonist reference compound. […]

SMILES strings stand for the structures.

In the case of `CC#C[C@@H](CC(=O)O)c1ccc(OCc2ccc(CN3CCC4(C=Cc5ccccc54)CC3)s2)cc1` [Example 1, (3S)-3-[4-[[5-(Spiro[indene-1,4′-piperidine]-1′-ylmethyl)-2-thienyl]methoxy]phenyl]hex-4-ynoic acid], the PPARδ binding entry at PPARδ was “no binding is detected”. The “functional activation of PPARα” value on Gal4 PPARα is reported as “No functional activation”.
